Test results published in PubChem BioAssay (NCI).
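96-well plates; 48 h exposure; 5 concentrations. Endpoints by linear interpolation between flanking doses. Not reached: highest tested concentration assigned. GI50 is the concentration that inhibits growth by half. TGI is the concentration that stops growth completely.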

Assays:
Assay in all cases: growth of human tumour cells (NCI), 48 h
OVCAR-3 ovarian = tested on: OVCAR-3 ovarian
NCI-H23 lung = tested on: NCI-H23 lung
EKVX NSCLC = tested on: EKVX NSCLC
RPMI-8226 leukemia = tested on: RPMI-8226 leukemia
SK-OV-3 ovarian = tested on: SK-OV-3 ovarian
HCC-2998 colon = tested on: HCC-2998 colon
RXF 393 renal = tested on: RXF 393 renal
TK-10 renal = tested on: TK-10 renal
OVCAR-4 ovarian = tested on: OVCAR-4 ovarian
M14 melanoma = tested on: M14 melanoma
HS 578T breast = tested on: HS 578T breast
MCF7 breast = tested on: MCF7 breast
HL-60(TB) leukemia = tested on: HL-60(TB) leukemia
SF-295 CNS = tested on: SF-295 CNS
MDA-MB-468 breast = tested on: MDA-MB-468 breast
MDA-MB-231 breast = tested on: MDA-MB-231 breast
HCT-15 colon = tested on: HCT-15 colon
LOX IMVI melanoma = tested on: LOX IMVI melanoma
A498 renal = tested on: A498 renal
HOP-92 NSCLC = tested on: HOP-92 NSCLC
CAKI-1 renal = tested on: CAKI-1 renal
SF-539 CNS = tested on: SF-539 CNS
SK-MEL-28 melanoma = tested on: SK-MEL-28 melanoma
NCI-H226 lung = tested on: NCI-H226 lung
IGROV1 ovarian = tested on: IGROV1 ovarian
HOP-62 NSCLC = tested on: HOP-62 NSCLC
786-0 renal = tested on: 786-0 renal
SK-MEL-5 melanoma = tested on: SK-MEL-5 melanoma
UO-31 renal = tested on: UO-31 renal
DU-145 prostate = tested on: DU-145 prostate
OVCAR-5 ovarian = tested on: OVCAR-5 ovarian
MALME-3M melanoma = tested on: MALME-3M melanoma
SK-MEL-2 melanoma = tested on: SK-MEL-2 melanoma
MDA-MB-435 = tested on: MDA-MB-435
PC-3 prostate = tested on: PC-3 prostate
A549 NSCLC = tested on: A549 NSCLC
T-47D breast = tested on: T-47D breast
SF-268 CNS = tested on: SF-268 CNS
OVCAR-8 ovarian = tested on: OVCAR-8 ovarian
HCT-116 colon = tested on: HCT-116 colon
UACC-62 melanoma = tested on: UACC-62 melanoma
ACHN renal = tested on: ACHN renal
SN12C renal = tested on: SN12C renal
KM12 colon = tested on: KM12 colon
SNB-19 CNS = tested on: SNB-19 CNS
BT-549 breast = tested on: BT-549 breast
NCI/ADR-RES ovarian = tested on: NCI/ADR-RES ovarian

COc1ccc2c(c1)c(-c1cc3nc(-c4cn(C)c5ncccc45)cc(N)n3n1)cn2C showed a GI50 (OVCAR-3 ovarian) of 1.98 µM, a TGI (OVCAR-3 ovarian) of 4.14 µM and a GI50 (NCI-H23 lung) of 3.92 µM. The TGI (NCI-H23 lung) was 17.9 µM, the GI50 (EKVX NSCLC) was 3.05 µM and the TGI (EKVX NSCLC) was 12.5 µM. It also gave a GI50 (RPMI-8226 leukemia) of 2.12 µM, a TGI (RPMI-8226 leukemia) of 5.44 µM and a GI50 (SK-OV-3 ovarian) of 4.65 µM. It also gave a TGI (SK-OV-3 ovarian) of 33 µM, a GI50 (HCC-2998 colon) of 1.81 µM and a TGI (HCC-2998 colon) of 3.56 µM. For the same compound, the GI50 (RXF 393 renal) was 1.66 µM, the TGI (RXF 393 renal) was 3.21 µM and the GI50 (TK-10 renal) was 4.25 µM. The TGI (TK-10 renal) was 14.5 µM, the GI50 (OVCAR-4 ovarian) was 2.13 µM and the TGI (OVCAR-4 ovarian) was 5 µM. It also gave a GI50 (M14 melanoma) of 1.8 µM, a TGI (M14 melanoma) of 3.44 µM and a GI50 (HS 578T breast) of 2.09 µM. For the same compound, the TGI (HS 578T breast) was 6.27 µM, the GI50 (MCF7 breast) was 2.27 µM and the TGI (MCF7 breast) was 5.91 µM. For the same compound, the GI50 (HL-60(TB) leukemia) was 2.17 µM, the TGI (HL-60(TB) leukemia) was 5.1 µM and the GI50 (SF-295 CNS) was 1.81 µM. For the same compound, the TGI (SF-295 CNS) was 3.49 µM, the GI50 (MDA-MB-468 breast) was 1.82 µM and the TGI (MDA-MB-468 breast) was 3.52 µM. The GI50 (MDA-MB-231 breast) was 1.84 µM, the TGI (MDA-MB-231 breast) was 3.89 µM and the GI50 (HCT-15 colon) was 1.76 µM. For the same compound, the TGI (HCT-15 colon) was 3.6 µM, the GI50 (LOX IMVI melanoma) was 1.79 µM and the TGI (LOX IMVI melanoma) was 3.31 µM. For the same compound, the GI50 (A498 renal) was 14.8 µM, the TGI (A498 renal) was 34.8 µM and the GI50 (HOP-92 NSCLC) was 1.61 µM. The TGI (HOP-92 NSCLC) was 3.82 µM, the GI50 (CAKI-1 renal) was 2.19 µM and the TGI (CAKI-1 renal) was 6.46 µM. It also gave a GI50 (SF-539 CNS) of 1.65 µM, a TGI (SF-539 CNS) of 3.06 µM and a GI50 (SK-MEL-28 melanoma) of 1.64 µM. It also gave a TGI (SK-MEL-28 melanoma) of 3.02 µM, a GI50 (NCI-H226 lung) of 2.36 µM and a TGI (NCI-H226 lung) of 6.92 µM. The GI50 (IGROV1 ovarian) was 2.06 µM, the TGI (IGROV1 ovarian) was 4.64 µM and the GI50 (HOP-62 NSCLC) was 3.11 µM. The TGI (HOP-62 NSCLC) was 13.3 µM, the GI50 (786-0 renal) was 1.74 µM and the TGI (786-0 renal) was 3.2 µM. For the same compound, the GI50 (SK-MEL-5 melanoma) was 1.69 µM, the TGI (SK-MEL-5 melanoma) was 3.24 µM and the GI50 (UO-31 renal) was 1.85 µM. It also gave a TGI (UO-31 renal) of 4.57 µM, a GI50 (DU-145 prostate) of 2.88 µM and a TGI (DU-145 prostate) of 8.26 µM. It also gave a GI50 (OVCAR-5 ovarian) of 4.76 µM, a TGI (OVCAR-5 ovarian) of 18 µM and a GI50 (MALME-3M melanoma) of 1.74 µM. The TGI (MALME-3M melanoma) was 3.17 µM, the GI50 (SK-MEL-2 melanoma) was 2.83 µM and the TGI (SK-MEL-2 melanoma) was 8.59 µM. For the same compound, the GI50 (MDA-MB-435) was 1.72 µM, the TGI (MDA-MB-435) was 3.35 µM and the GI50 (PC-3 prostate) was 2.75 µM. The TGI (PC-3 prostate) was > 100 µM, the GI50 (A549 NSCLC) was 3.37 µM and the TGI (A549 NSCLC) was 13.8 µM. The GI50 (T-47D breast) was 3.24 µM, the TGI (T-47D breast) was 16.3 µM and the GI50 (SF-268 CNS) was 2.64 µM. The TGI (SF-268 CNS) was 8.65 µM, the GI50 (OVCAR-8 ovarian) was 3.17 µM and the TGI (OVCAR-8 ovarian) was > 100 µM. It also gave a GI50 (HCT-116 colon) of 1.67 µM, a TGI (HCT-116 colon) of 3.13 µM and a GI50 (UACC-62 melanoma) of 1.61 µM. The TGI (UACC-62 melanoma) was 3.02 µM, the GI50 (ACHN renal) was 2.09 µM and the TGI (ACHN renal) was 4.24 µM. It also gave a GI50 (SN12C renal) of 5.18 µM, a TGI (SN12C renal) of 18.2 µM and a GI50 (KM12 colon) of 1.97 µM. The TGI (KM12 colon) was 4.32 µM, the GI50 (SNB-19 CNS) was 3.98 µM and the TGI (SNB-19 CNS) was 16.8 µM. For the same compound, the GI50 (BT-549 breast) was 1.83 µM, the TGI (BT-549 breast) was 3.77 µM and the GI50 (NCI/ADR-RES ovarian) was 3.62 µM. It also gave a TGI (NCI/ADR-RES ovarian) of 23.5 µM.
